{"source": "patent US8728539B2", "about": "“Method of enhancing intestinal pinocytosis of immunoglobulins in postnatal domestic mammals” (Incorporated Administrative Agency, National Agriculture …, priority 2004, dated 2014)", "key": {"[1]": {"experiment": "Selenium concentration in plasma of calves after administration (FIG. 4)", "type": "in vivo, calves (Holstein types)", "settings": "3 ppm selenium, administered only once within 3 hours postnatal; versus no addition", "from_the_text": "As a supply source of selenium, sodium selenite was used. In order to avoid different absorption rates of immunoglobulins based on different types of colostrum, the same amounts of colostrum milked from the same source were fed to these two calves in a pair. The colostrums fed (frozen for preservation) were of the four types as follows: the first milking post-parturition (Colostrum 1), the second milking post-parturition (Colostrum 2), the third milking post-parturition (Colostrum 3), and the fourth milking post-parturition (Colostrum 4). 2 liters of Colostrum 1 (1 L×2 bottles) were taken, and for the rest, 4 liters (2L×2 bottles) were taken, respectively. 1 liter of Colostrum 1 within 2 hours post-parturition was fed, and then 2 liters of Colostrum 2, 3 and 4 were fed, respectively 12, 24 and 36 hours post-parturition. The concentrations of immunoglobulins in the colostrums used were 24.3-129.0 mg/ml, and those of selenium were 0.06-0.1 ppm (before adding selenium). The concentrations of immunoglobulins G (IgG) in plasma of calves 24 hours post-parturition were measured by means of radial immuno-diffusion (RID). The experiments as above were carried out while varying the selenium content based on the number of addition of selenium, i.e., (1) adding selenium only to Colostrum 1 (1.0-5.0 ppm), and (2) adding selenium to all four types of colostrum (0.2-4.0 ppm). […]"}, "calves (Holstein types) [2]": {"system": "calves (Holstein types)", "experiment": "IgG in plasma of postnatal calves fed colostrum with added selenium, measured by radial immuno-diffusion (RID)", "type": "in vivo"}, "calves (Holstein types) [3]": {"system": "calves (Holstein types)", "experiment": "IgG in plasma of postnatal calves fed colostrum with added selenium, measured by radial immuno-diffusion (RID)", "type": "in vivo", "settings": "for IgG in Plasma: plasma 24 hours post-parturition", "description": "In the example, colostrum added with selenium was administered to one of the two calves (Holstein types) in a pair, and colostrum without selenium was administered to the other calf. A total of 32 pairs of calves were employed for experimental purposes. For equalizing the experimental conditions of these two sets of calves, they were selected based on their proximities in body weight. The body weights ranged from 30.8-56.9 kg, and the differences between in body weight within a pair were less than 2.5 kg.\nAs a supply source of selenium, sodium selenite was used. In order to avoid different absorption rates of immunoglobulins based on different types of colostrum, the same amounts of colostrum milked from the same source were fed to these two calves in a pair. The colostrums fed (frozen for preservation) were of the four types as follows: the first milking post-parturition (Colostrum 1), the second milking post-parturition (Colostrum 2), the third milking post-parturition (Colostrum 3), and the fourth milking post-parturition (Colostrum 4). 2 liters of Colostrum 1 (1 L×2 bottles) were taken, and for the rest, 4 liters (2L×2 bottles) were taken, respectively. 1 liter of Colostrum 1 within 2 hours post-parturition was fed, and then 2 liters of Colostrum 2, 3 and 4 were fed, respectively 12, 24 and 36 hours post-parturition. The concentrations of immunoglobulins in the colostrums used were 24.3-129.0 mg/ml, and those of selenium were 0.06-0.1 ppm (before adding selenium). The concentrations of immunoglobulins G (IgG) in plasma of calves 24 hours post-parturition were measured by means of radial immuno-diffusion (RID). The experiments as above were carried out while varying the selenium content based on the number of addition of selenium, i.e., (1) adding selenium only to Colostrum 1 (1.0-5.0 ppm), and (2) adding selenium to all four types of colostrum (0.2-4.0 ppm)."}, "calves (Holstein types) [4]": {"system": "calves (Holstein types)", "experiment": "Biochemical blood tests (18 factors) for adverse effects of added selenium", "type": "in vivo", "settings": "blood samples 24, 48 hours and 1 week post-parturition; versus colostrum without selenium", "description": "Moreover, the blood samples were taken 24, 48 hours and 1 week post-parturition respectively, and biochemical blood tests (with 18 factors) were carried out to investigate any adverse effects of added selenium on the health conditions of calves. There was little difference between the test results of the calves administered with colostrum added with selenium, and those of the calves administered with colostrum without selenium."}, "calves (Holstein types) [5]": {"system": "calves (Holstein types)", "experiment": "Absorption of lactalbumin into plasma of calves (FIG. 5)", "type": "in vivo", "settings": "3 ppm selenium in first colostrum feed; 24 hours postnatal; versus no addition", "description": "To calves administered with colostrum with selenium, selenium was added only to the first colostrum feeds.\nTherefore, selenium is effective in absorption of nonimmunoglobulin proteins such as lactalbumin. Accordingly, selenium enhances pinocytosis, thereby enhancing immunoglobulin proteins or nonimmunoglobulin proteins."}, "[6]": {"settings": "3 ppm selenium, first feed only, versus no addition"}}, "data": [{"smiles": "O=[Se]([O-])[O-].[Na+].[Na+]", "note": "[Se, sodium selenite]", "values": [{"measurement": "selenium level in blood, temporal change (FIG. 4)", "setting": "[1]", "result": "high selenium level in blood was maintained over 4 weeks postnatal"}, {"measurement": "duration of high immunoglobulin G level in blood (FIG. 7)", "setting": "calves (Holstein types) [2]; [6]", "result": "the high level against no addition was maintained over 14 days (2 weeks)"}, {"measurement": "immunoglobulin G level in blood immediately after administration (FIG. 7)", "setting": "calves (Holstein types) [2]; [6]", "result": "immunoglobulin G level immediately after administration of selenium is high"}, {"measurement": "IgG in Plasma", "setting": "calves (Holstein types) [2]; 5.0 ppm Se added to all four colostrum feeds (4x), plasma 24 hours post-parturition, average of 4 calves", "result": 24.6, "unit": "mg/mL"}, {"measurement": "immunoglobulin G level in blood, selenium and colostrum administered separately (FIG. 6)", "setting": "calves (Holstein types) [2]; only 3 ppm selenium within 2 hours postnatal, then only colostrum at 12, 24, 36 hours, within 24 hours postnatal, versus no addition", "result": "absorption level of immunoglobulin G is high"}, {"measurement": "IgG in Plasma", "setting": "calves (Holstein types) [3]; 0.2 ppm Se added to all four colostrum feeds (4x), average of 3 calves", "result": 25.7, "unit": "mg/mL"}, {"measurement": "IgG in Plasma", "setting": "calves (Holstein types) [3]; 1 ppm Se added only to first colostrum feed (1x), average of 3 calves", "result": 17, "unit": "mg/mL"}, {"measurement": "IgG in Plasma", "setting": "calves (Holstein types) [3]; 1.0 ppm Se added to all four colostrum feeds (4x), average of 5 calves", "result": 32.9, "unit": "mg/mL"}, {"measurement": "IgG in Plasma", "setting": "calves (Holstein types) [3]; 2 ppm Se added only to first colostrum feed (1x), average of 3 calves", "result": 16, "unit": "mg/mL"}, {"measurement": "IgG in Plasma", "setting": "calves (Holstein types) [3]; 3 ppm Se added only to first colostrum feed (1x), average of 6 calves", "result": 21.5, "unit": "mg/mL"}, {"measurement": "IgG in Plasma", "setting": "calves (Holstein types) [3]; 4 ppm Se added only to first colostrum feed (1x), average of 4 calves", "result": 17.4, "unit": "mg/mL"}, {"measurement": "IgG concentration in plasma, four feeds with selenium versus first feed only with selenium", "setting": "calves (Holstein types) [3]; 4x versus 1x addition of selenium", "result": "about the same level"}, {"measurement": "IgG in Plasma", "setting": "calves (Holstein types) [3]; 5 ppm Se added only to first colostrum feed (1x), average of 4 calves", "result": 23, "unit": "mg/mL"}, {"measurement": "IgG concentrations in plasma versus calves given colostrum without selenium (FIGS. 2 and 3)", "setting": "calves (Holstein types) [3]; in most of the experimental conditions, 1x and 4x addition", "result": "shown to be higher"}, {"measurement": "adverse effects on the health conditions of calves, biochemical blood tests (18 factors)", "setting": "calves (Holstein types) [4]", "result": "no adverse effects"}, {"measurement": "absorption of lactalbumin (FIG. 5)", "setting": "calves (Holstein types) [5]", "result": "enhances the absorption of lactalbumin"}]}]}
